Values after ≈ are worked out from the molar mass of the structure shown.

In this assay the test system is DR-Mtb strains. In words: microbe, parasite or virus in culture. The settings on record: Mycobacterium tuberculosis, read-out: MIC against all DR-Mtb strains. In kind it is cell-based.
As for `COC(=O)c1cc(-c2cccc(NC(=S)Nc3ccc(Cl)cc3)c2)on1` [5f, Methyl 5-(3-(3-(4-chlorophenyl)thioureido)phenyl)isoxazole-3-carboxylate], the MIC is 0.5 to 4 µg/mL (≈ 1.29 to 10.3 µM).

Consider `COC(=O)c1cc(-c2ccc(NC(=O)Nc3ccc(Cl)c(Cl)c3)cc2)on1` [4tb, Methyl 5-(4-(3-(3,4-dichlorophenyl)ureido)phenyl)isoxazole-3-carboxylate], for which the MIC was in the range of 1 to 4 µg/mL (≈ 2.46 to 9.85 µM).

With `COC(=O)c1cc(-c2cccc(NC(=O)Nc3ccc(Cl)c(Cl)c3)c2)on1` [4t, Methyl 5-(3-(3-(3,4-dichlorophenyl)ureido)phenyl)isoxazole-3-carboxylate], the MIC lay within 0.5 to 4 µg/mL (≈ 1.23 to 9.85 µM).

These data come from PMC9592870 (Molecular Diversity, 2022).
